Structures are written as SMILES. Bounds are passed on as bounds.

This assay relates to 8×TBD luciferase reporter in HEK293T cells. Kind of assay: YAP Reporter Assay (firefly luciferase). The assay is classed as cell-based. The settings on record: Homo sapiens, HEK-293T; HEK293T cells stably transfected with 8×TBD luciferase reporter and pRLTK; 24-hr incubation; starting from 3 μM, 1:3 dilution, 10 points. As for the experimental part:
HEK293T cells stably transfected with 8×TBD luciferase reporter and pRLTK in 384-well plates were treated with the test compounds, starting from 3 μM (final concentration in assay plate), 1:3 dilution, and 10 points in quadruplicates. Post 24-hr incubation with compounds at 37° C. and 5% CO2, cells were lysed and 8×TBD-driven firefly luciferase and control TK-driven renilla luciferase activities were measured using Promega Dual-Luciferase Reporter Assay System.
Reagents: The reagents used for this study are: DMEM: Invitrogen #11960077, Dual-Glo Luciferase Assay System: Promega-E2980, Puromycin Dihydrochloride: Invitrogen-A1113803, 384-well plate: PerkinElmer-6007480, L-GLUTAMINE: Invitrogen-25030164, Hygromycin B: Invitrogen-10687010, and Penicillin-Streptomycin: Merk-TMS-AB2-C
Media: The media used for this assay were: Culture Medium: DMEM+1 ug/mL puromycin+200 ug/mL hygromycin (with 10% FBS+1 mM L-glutamine); and Assay Medium: DMEM (with 10% FBS+1 mM L-glutamine+1×P/S).
Cell Plating: The appropriate media was warmed at 37° C. by water bath: Culture Medium, Assay Medium, 1*D-PBS, 0.05% trypsin-EDTA. The cells were trypsinized after removing all media, then washed with 1*sterile D-PBS and then with 2 ml 0.05% trypsin-EDTA. The cells were then incubated at RT for one minute. Then 10 ml/75 cm2 flask Assay Medium was added to each flask. Using a 10 ml pipette, the cells were then gently resuspended in the media, until the clumps completely disappeared. The cells were then transferred into 50 ml centrifuge tubes and were centrifuged at 800 rpm for 5 mins. The medium was removed and the cells were resuspended with Assay Medium. An aliquot of cells was used to count the cell density (cells/ml). The cell suspension was then diluted with Assay Medium to a concentration of 6×10^4 cells/ml. 50 ul cells suspension was then plated to 384-well plate (PerkinElmer-6007480), 3×10^3 cells/well and the cells were incubated in an incubator at 37° C., 5% CO2.
Compound Treatment: In the afternoon (incubation of the plate with 3-4 hrs), the test compounds were added by Echo, starting from 3 uM (final concentration in the assay plate), 1:3 dilution, 10 points, quadruplicates. The plate was placed at 37° C., 5% CO2 incubator for 24 hrs.
Detection: The Dual-Glo Luciferase Reagent was prepared by transferring the contents of one bottle of Dual-Glo Luciferase Buffer to one bottle of Dual-Glo Luciferase Substrate to create the Dual-G Luciferase Reagent. Mixing was performed by inversion until the substrate was thoroughly dissolved. After mixing, the reagent was aliquoted into 15 ml tubes. In the afternoon (24 hrs post compound treatment), the DMEM+ medium in the 384 well plates were aspirated by Microplate Washer.
Measuring firefly luciferase activity: 20 ul Dual-Glo Luciferase Reagent was added to the 384-well plates. The plates were protected from light to prevent interference with the assay. The plates were shaken for […] followed centrifuging plates at 1000 rpm for 30 seconds. After waiting at least 10 minutes, the firefly luminescence was measured by Envision.
Measuring renilla luciferase activity: 20 ul Stop-Glo Reagent was added to the 384-well plates. The plates were shaken for […] and then centrifuged at 1000 rpm for 30 seconds. After waiting at least 10 minutes, the renilla luminescence was measured by Envision.
Compound IC50 and maximum inhibition on the firefly luciferase and renilla luciferase activities were reported separately.
Take `CC(=O)NC1CN(C(=O)c2ccc3c(Oc4ccc(C(F)(F)F)cc4)cccc3c2)C1` [Compound 1, N-(1-(5-(4-(Trifluoromethyl)phenoxy)-2-naphthoyl)azetidin-3-yl)acetamide]: the IC50 was not above 100 nM.
For `NC1CN(C(=O)c2ccc3c(Oc4ccc(C(F)(F)F)cc4)cccc3c2)C1` [Compound 1A, (3-aminoazetidin-1-yl)(5-(4-(trifluoromethyl)phenoxy)naphthalen-2-yl)methanone] the value was not above 100 nM; for `O=C(c1ccc2c(Oc3ccc(C(F)(F)F)cc3)cccc2c1)N1CCNCC1` [Compound 2, Piperazin-1-yl(5-(4-(trifluoromethyl)phenoxy)naphthalen-2-yl)methanone], 1000 to 3000 nM.
`NC1CCN(C(=O)c2ccc3c(Oc4ccc(C(F)(F)F)cc4)cccc3c2)C1` (stereo not shown) [Compound 3, (3-Aminopyrrolidin-1-yl)(5-(4-(trifluoromethyl)phenoxy)naphthalen-2-yl)methanone]: the IC50 was in the range of 100 to 1000 nM.
For `NC1CCN(C(=O)c2ccc3c(Oc4ccc(C(F)(F)F)cc4)cccc3c2)CC1` [Compound 4, (4-Aminopiperidin-1-yl)(5-(4-(trifluoromethyl)phenoxy)naphthalen-2-yl)methanone], the IC50 was not above 100 nM.
The same measure for `NCC1CN(C(=O)c2ccc3c(Oc4ccc(C(F)(F)F)cc4)cccc3c2)C1` [Compound 7, (3-(Aminomethyl)azetidin-1-yl)(5-(4-(trifluoromethyl)phenoxy)naphthalen-2-yl)methanone]: not above 100 nM; for `NCC1CCN(C(=O)c2ccc3c(Oc4ccc(C(F)(F)F)cc4)cccc3c2)C1` (stereo not shown) [Compound 8, (3-(Aminomethyl)pyrrolidin-1-yl)(5-(4-(trifluoromethyl)phenoxy)naphthalen-2-yl)methanone]: not above 100 nM; for `NCC1CCCN(C(=O)c2ccc3c(Oc4ccc(C(F)(F)F)cc4)cccc3c2)C1` (stereo not shown) [Compound 9, (3-(Aminomethyl)piperidin-1-yl)(5-(4-(trifluoromethyl)phenoxy)naphthalen-2-yl)methanone]: 100 to 1000 nM.
For the compound `O=C(c1ccc2c(Oc3ccc(C(F)(F)F)cc3)cccc2c1)N1CC2(CNC2)C1` [Compound 11, (2,6-Diazaspiro[3.3]heptan-2-yl)(5-(4-(trifluoromethyl)phenoxy)naphthalen-2-yl)methanone], the IC50 lay in the range of 100 to 1000 nM.
`CN(C)C1CN(C(=O)c2ccc3c(Oc4ccc(C(F)(F)F)cc4)cccc3c2)C1` [Compound 12, (3-(Dimethylamino)azetidin-1-yl)(5-(4-(trifluoromethyl)phenoxy)naphthalen-2-yl)methanone]: the IC50 lay within 1000 to 3000 nM.
The compound `O=C(c1ccc2c(Oc3ccc(C(F)(F)F)cc3)cccc2c1)N1CC(CO)C1` [Compound 13, (3-(Hydroxymethyl)azetidin-1-yl)(5-(4-(trifluoromethyl)phenoxy)naphthalen-2-yl)methanone] returned an IC50 not above 100 nM.
For `CN(C)CC1CN(C(=O)c2ccc3c(Oc4ccc(C(F)(F)F)cc4)cccc3c2)C1` [Compound 14, (3-((Dimethylamino)methyl)azetidin-1-yl)(5-(4-(trifluoromethyl)phenoxy)naphthalen-2-yl)methanone] the value was 100 to 1000 nM; for `O=C(c1ccc2c(Oc3ccc(C(F)(F)F)cc3)cccc2c1)N1CC(O)C1` [Compound 15, (3-Hydroxyazetidin-1-yl)(5-(4-(trifluoromethyl)phenoxy)naphthalen-2-yl)methanone], not above 100 nM.
The same measure for `CC(=O)NCC1CN(C(=O)c2ccc3c(Oc4ccc(C(F)(F)F)cc4)cccc3c2)C1` [Compound 16, N-((1-(5-(4-(trifluoromethyl)phenoxy)-2-naphthoyl)azetidin-3-yl)methyl)acetamide]: not above 100 nM; for `CS(=O)(=O)NCC1CN(C(=O)c2ccc3c(Oc4ccc(C(F)(F)F)cc4)cccc3c2)C1` [Compound 17, N-((1-(5-(4-(trifluoromethyl)phenoxy)-2-naphthoyl)azetidin-3-yl)methyl)methanesulfonamide]: not above 100 nM.
The same measure for `CN1CC2(C1)CN(C(=O)c1ccc3c(Oc4ccc(C(F)(F)F)cc4)cccc3c1)C2` [Compound 18, (6-Methyl-2,6-diazaspiro[3.3]heptan-2-yl)(5-(4-(trifluoromethyl)phenoxy)naphthalen-2-yl)methanone]: 100 to 1000 nM; for `CCN1CC2(C1)CN(C(=O)c1ccc3c(Oc4ccc(C(F)(F)F)cc4)cccc3c1)C2` [Compound 19, (6-Ethyl-2,6-diazaspiro[3.3]heptan-2-yl)(5-(4-(trifluoromethyl)phenoxy)naphthalen-2-yl)methanone]: 100 to 1000 nM; for `CC(C)N1CC2(CN(C(=O)c3ccc4c(Oc5ccc(C(F)(F)F)cc5)cccc4c3)C2)C1` [Compound 20, (6-Isopropyl-2,6-diazaspiro[3.3]heptan-2-yl)(5-(4-(trifluoromethyl)phenoxy)naphthalen-2-yl)methanone]: 100 to 1000 nM.
Regarding `O=C(c1ccc2c(Oc3ccc(C(F)(F)F)cc3)cccc2c1)N1CC2(CN(CCO)C2)C1` [Compound 21, (6-(2-Hydroxyethyl)-2,6-diazaspiro[3.3]heptan-2-yl)(5-(4-(trifluoromethyl)phenoxy)naphthalen-2-yl)methanone], the IC50 lay in the range of 100 to 1000 nM.
In the case of `COCCN1CC2(C1)CN(C(=O)c1ccc3c(Oc4ccc(C(F)(F)F)cc4)cccc3c1)C2` [Compound 22, (6-(2-Methoxyethyl)-2,6-diazaspiro[3.3]heptan-2-yl)(5-(4-(trifluoromethyl)phenoxy)naphthalen-2-yl)methanone], the half-maximal inhibitory concentration (IC50) lay within 100 to 1000 nM.
The same measure for `O=C(c1ccc2c(Oc3ccc(C(F)(F)F)cc3)cccc2c1)N1CC2(CN(CCF)C2)C1` [Compound 23, (6-(2-Fluoroethyl)-2,6-diazaspiro[3.3]heptan-2-yl)(5-(4-(trifluoromethyl)phenoxy)naphthalen-2-yl)methanone]: 100 to 1000 nM; for `O=C(c1ccc2c(Oc3ccc(C(F)(F)F)cc3)cccc2c1)N1CC2(CN(CC(F)F)C2)C1` [Compound 24, (6-(2,2-Difluoroethyl)-2,6-diazaspiro[3.3]heptan-2-yl)(5-(4-(trifluoromethyl)phenoxy)naphthalen-2-yl)methanone]: 100 to 1000 nM.
The same measure for `CNCC1CN(C(=O)c2ccc3c(Oc4ccc(C(F)(F)F)cc4)cccc3c2)C1` [Compound 25, (3-((Methylamino)methyl)azetidin-1-yl)(5-(4-(trifluoromethyl)phenoxy)naphthalen-2-yl)methanone]: 100 to 1000 nM.
Take `CNC1CN(C(=O)c2ccc3c(Oc4ccc(C(F)(F)F)cc4)cccc3c2)C1` [Compound 26, (3-(Methylamino)azetidin-1-yl)(5-(4-(trifluoromethyl)phenoxy)naphthalen-2-yl)methanone]: the IC50 was 100 to 1000 nM.
`CCNC1CN(C(=O)c2ccc3c(Oc4ccc(C(F)(F)F)cc4)cccc3c2)C1` [Compound 27, (3-(Ethylamino)azetidin-1-yl)(5-(4-(trifluoromethyl)phenoxy)naphthalen-2-yl)methanone] gave an IC50 of 100 to 1000 nM.
`CC(C)NC1CN(C(=O)c2ccc3c(Oc4ccc(C(F)(F)F)cc4)cccc3c2)C1` [Compound 28, (3-(Isopropylamino)azetidin-1-yl)(5-(4-(trifluoromethyl)phenoxy)naphthalen-2-yl)methanone]: the concentration for half-maximal inhibition (IC50) is not above 100 nM.
For `COCCNC1CN(C(=O)c2ccc3c(Oc4ccc(C(F)(F)F)cc4)cccc3c2)C1` [Compound 29, (3-((2-Methoxyethyl)amino)azetidin-1-yl)(5-(4-(trifluoromethyl)phenoxy)naphthalen-2-yl)methanone] the value was 100 to 1000 nM.
`O=C(c1ccc2c(Oc3ccc(C(F)(F)F)cc3)cccc2c1)N1CC(NCCO)C1` [Compound 30, (3-((2-Hydroxyethyl)amino)azetidin-1-yl)(5-(4-(trifluoromethyl)phenoxy)naphthalen-2-yl)methanone] gave an IC50 not above 100 nM.

Usually IC50 stands for the point on the concentration scale where inhibition reaches its midpoint. Read a high IC50 as a need for much substance.

For the origin of these results see patent US20240025913A1, “TERTIARY CARBOXAMIDE COMPOUNDS” (Vivace Therapeutics, Inc., priority 2020, published 2024).
